The values that follow come from US9580430B2, “9H-pyrimido[4,5-B]indoles and related analogs as BET bromodomain inhibitors” (THE REGENTS OF THE UNIVERSITY OF MICHIGAN, priority 2014, dated 2017).

Data set [1] deals with AR-positive cells. As to the kind of experiment: Cell cycle analysis and apoptosis (cleaved PARP immunoblot). The class given is cell-based. The following applies: FIG. 2. The procedure:
For cell cycle analysis, cells were washed 48 h post-treatment with PBS and fixed in 70% ethanol overnight. The cells were washed again with PBS, stained with propidium iodide and analyzed by flow cytometry.
(§1) For Western blot analysis, 200 ug total protein extract was boiled in sample buffer and 10-20 μg aliquots were separated by SDS-PAGE and transferred onto Polyvinylidene Difluoride membrane (GE Healthcare). The membrane was incubated for one hour in blocking buffer [Tris-buffered saline, 0.1% Tween (TBS-T), 5% nonfat dry milk] followed by incubation overnight at 4° C. with the primary antibody. Following a wash with TBS-T, the blot was incubated with horseradish peroxidase-conjugated secondary antibody and signals were visualized by enhanced chemiluminescence system as per manufacturer's protocol (GE Healthcare).
(Immunoblotting shows a protein as a band on a membrane.)

Data set [2] deals with VCaP tumor xenograft. The procedure:
(§2) Four week-old male SCID C.B17 mice were procured from a breeding colony at University of Michigan. All procedures involving mice were approved by the University Committee on Use and Care of Animals (UCUCA) at the University of Michigan and conform to all regulatory standards. Mice were anesthetized using 2% Isoflurane (inhalation) and 2×10^6 VCaP prostate cancer cells suspended in 100 μl of PBS with 50% Matrigel (BD Biosciences) were implanted subcutaneously into the dorsal flank on both sides of the mice. […] Growth in tumor volume was recorded using digital calipers and tumor volumes were estimated using the formula (π/6) (L×W^2), where L=length of tumor and W=width. Loss of body weight during the course of the study was also monitored. At the end of the studies mice were sacrificed and tumors extracted and weighed. Additionally, femur bone marrow, liver and spleen were harvested to examine spontaneous metastasis by detecting human-Alu sequence. […] All procedures involving mice were approved by the University Committee on Use and Care of Animals (UCUCA) at the University of Michigan and conform to all regulatory standards.

Data set [3] deals with BRD4. As to the kind of experiment: ChIP-seq of BRD4 in DHT-stimulated VCaP cells. The following applies: JQ1 500 nM, FIG. 20. The class given is cell-based. The procedure:
The ChIP assays for BRD2, BRD3, BRD4, AR, RNA PolII, ERG and H3K27ac were performed using HighCell ChIP kit (Diagenode) according to manufacturer's protocol. […] Next, cells were cross-linked for 10 min. with 1% formaldehyde. […] Chromatin equivalent to 5×10^6 cells were used for ChIP using different antibodies. ChIP DNA was isolated (IPure Kit, Diagenode) from samples by incubation with the antibody at 4° C. overnight followed by wash and reversal of cross-linking. The ChIP-seq sample preparation for sequencing was performed according to the manufacturer's instructions (Illumina). […] A single A-base was added to fragment ends by Klenow fragment (3′ to 5′ exo minus; NEB) followed by ligation of Illumina adaptors (Quick ligase, NEB). The adaptor-modified DNA fragments were enriched by PCR using the Illumina Barcode primers and Phusion DNA polymerase (NEB). PCR products were size selected using 3% NuSieve agarose gels (Lonza) followed by gel extraction using QIAEX II reagents (QIAGEN). Libraries were quantified with the Bioanalyzer 2100 (Agilent) and sequenced on the Illumina HiSeq 2000 Sequencer (100 nucleotide read length).
For enrichment plots shown in FIGS. 17, 19 and 20, identified peaks for each sample are centered by peak summit and average coverage per million was counted within 1500 bp relative to the peak center.

Data set [4] concerns MYC signature. As to the kind of experiment: Gene expression array, GSEA of MYC signature, VCaP. The note with it: VCaP after JQ1 treatment. The data set is classed as cell-based. The procedure: (§3) Cells treated with only vehicle or 10 nM DHT served as controls. […] Expression profiling was performed using the Agilent Whole Human Genome Oligo Microarray (SantaClara, Calif.) according to the manufacturer's protocol. All samples were run in technical duplicates or quadruplets against control. Over- and under-expressed gene sets were generated by filtering to include only 2-fold average over- or underexpression (Log ratio with p<0.001) in all hybridizations.

The subject of data set [5] is MYC. As to the kind of experiment: MYC levels in prostate cancer cells. The note with it: AR-positive cells sensitive to JQ1, not AR-negative cells. The class given is cell-based. The procedure:
(§4) Total RNA was isolated from cells using RNeasy Mini Kit (Qiagen) and cDNA was synthesized from 1,000 ng total RNA using SuperScript III First-Strand Synthesis SuperMix (Invitrogen). QPCRs were performed in duplicate or triplicate using Taqman assays (Applied Biosystems) or standard SYBR green reagents and protocols on a StepOnePlus Real-Time PCR system (Applied Biosystems). The target mRNA expression was quantified using ΔΔCt method and normalized to GAPDH expression. All primers were designed using Primer 3 (http://frodo.wi.mit.edu/primer3/) and synthesized by Integrated DNA Technologies (Coralville, Iowa).
as §1

Data set [6] relates to castration-resistant VCaP tumor xenografts. As to the kind of experiment: Castration-resistant VCaP tumor xenograft (CRPC experiment). The data set is classed as in vivo. The following applies: castrated mice; 50 mg/kg, 5 days/week; FIG. 26. The procedure:
as §2

For data set [7], the system named is MYC signature. As to the kind of experiment: Gene expression array, GSEA of MYC signature, DU145. The note with it: DU145 after JQ1 treatment. The data set is classed as cell-based. The procedure: as §3
Data set [8] has as its system PSA and ERG. As to the kind of experiment: QRT-PCR and immunoblot of AR-target genes in VCaP. The data set is classed as cell-based. The following applies: VCaP cells; FIGS. 4 and 5. The procedure:
as §4, §1

The test system of data set [9] is 5 prostate cancer and 1 benign prostate cell line. As to the kind of experiment: Cell viability assay, panel of prostate cell lines (Cell-Titer GLO). The class given is cell-based. The following applies: three of the AR-signaling positive cells; FIG. 1. The procedure:
VCaP prostate cancer cells were grown in DMEM with Glutamax (Gibco), LNCaP, 22RV1, DU145 and PC3 prostate cancer cell lines were grown in RPMI 1640, all were supplemented with 10% FBS (Invitrogen) in 5% CO2 cell culture incubator. The immortalized benign prostate cell line RWPE-1 was grown in keratinocyte media with supplements (Lonza). All cell lines were tested and found to be free of mycoplasma contamination.
Cells were seeded in 96-well plates at 2000-10,000 cells/well (optimum density for growth) in a total volume of 100 μl media containing 10% FBS. Serially diluted compounds in 100 μl media were added to the cells 12 h later. Following 96 h. incubation, cell viability was assessed by Cell-Titer GLO (Promega). The values were normalized and IC50 was calculated using GraphPad Prism software. […] After 12 days cells were fixed with methanol, stained with crystal violet and photographed. For colorimetric assays, the stained wells were treated with 500 μl 10% acetic acid and the absorbance was measured at 560 nm using a spectrophotometer.

Data set [10] relates to AR-gene signature. As to the kind of experiment: Gene expression array, GSEA of the AR target gene signature. The data set is classed as cell-based. The note with it: AR-positive cells; 500 nM, 24 h; FIG. 6. The procedure:
as §3

[11] abbreviates: gene set SCHLOSSER_MYC_AND_SERUM_RESPONSE_SYNERGY.
The mark [12] stands for this setting: gene set SCHLOSSER_MYC_TARGETS_AND_SERUM_RESPONSE_UP.
The mark [13] stands for this setting: gene set SCHUHMACHER_MYC_TARGETS_UP.

Each structure is given as a SMILES string.

With `Cc1sc2c(c1C)C(c1ccc(Cl)cc1)=N[C@@H](CC(=O)OC(C)(C)C)c1nnc(C)n1-2` [JQ1], in data set [1], the “cell cycle arrest and apoptosis” value was “induced G0-G1 arrest, apoptosis”. In [2] (VCaP tumor-bearing mice, JQ1 50 mg/kg, MDV3100 10 mg/kg, 5 days/week, FIGS. 23-25), the tumor volume/weight result is reported as “significant reduction in tumor volume/weight”. The tolerability entry in [2] (mouse, in vivo) is on record as “well tolerated”. The “DHT induced BRD4 recruitment to the AR-BRD4 shared loci” value in data set [3] is “almost completely abrogated”. Further, the NES is −2.265 in data set [4] (gene set MYC_UP.V1_UP); −1.818 in [4] (setting [11]); −1.824 in data set [4] (setting [12]); −2.275 in data set [4] (setting [13]); −0.952 in data set [7] (gene set MYC_UP.V1_UP); −1.085 in data set [7] (setting [11]). For the same molecule, the figures for the NES in data set [7] (setting [12]) and in data set [7] (setting [13]) were −0.734 and −1.086, respectively. Moreover, in data set [5], the MYC levels result is on record as “attenuated”. The “reduction in castration-resistant tumors” value in [6] was 50%. Moreover, the “PSA and ERG mRNA and protein level” value in data set [8] was “dose-dependent decrease in PSA and ERG”. The “sensitivity of prostate cell lines” value in [9] is reported as “sensitive”. Moreover, the “GSEA of AR-gene signature” value in [10] was “significantly repressed”.
